We go through two compounds from patent US20210046162A1, “Teriparatide Use for Bone Stress Fractures/Reactions” (University of South Carolina, priority 2019, published 2021).

In general, bioavailability refers to the share of a dose that reaches the circulation, judged against a reference dose that is usually intravenous. As a reminder, the half-life is how long it takes for the measured level to halve. In general, Cmax refers to the maximum level reached in the sampled fluid or tissue. What is called Tmax is the time from dosing to the highest level.

Read-outs that look alike come from different tables or passages of the source.

The conditions of data set [1]: cited from earlier work; for bioavailability: after subcutaneous injection.
The conditions of data set [2]: in vivo, sc.
From the text: (§1) As used herein “peak concentration (CMAX) of PTH peptide in a blood plasma”, “area under concentration vs. time curve (AUC) of PTH peptide in a blood plasma”, “time to maximal plasma concentration (tMAX) of PTH peptide in a blood plasma” are pharmacokinetic parameters known to one skilled in the art. […] The “concentration vs. time curve” measures the concentration of PTH peptide in a blood serum of a subject vs. time after administration of a dosage of PTH peptide to the subject either by intranasal, intramuscular, subcutaneous, or other parenteral route of administration. “CMAX” is the maximum concentration of PTH peptide in the blood serum of a subject following a single dosage of PTH peptide to the subject. “TMAX” is the time to reach maximum concentration of PTH peptide in a blood serum of a subject following administration of a single dosage of PTH peptide to the subject. […] Mean changes of teriparatide acetate (in picograms per liter) in plasma after a single subcutaneous injection of teriparatide (filled circle 56.5 μg, filled triangle 28.2 μg) to 360 min. Bars represent standard deviation.
The next data set deals with tibial fractures. Particulars: rats, after 20 and 40 days of healing, cited from earlier work.
The subject of another data set is stress fractures (DTSFs). The data set is described as follows: Teriparatide therapy of stress fractures in NCAA collegiate athletes (FIG. 8). Type of data set: in vivo, humans. Particulars: 20 mcg dose, at least 28 days. From the text: The current disclosure has administered teriparatide at the 20 mcg dose to young adult NCAA collegiate athletes who have DTSFs. Our promising clinical findings, see, e.g., FIG. 8, have led us to hypothesize that teriparatide will have a positive effect on bone healing and return to duty among service members with DTSFs. While a dosage of 20 mcg has been found effective, other dosages are considered within the scope of this application such as ranges from 5-50 mcg, 10-40 mcg, 15-35 mcg, 20-30 mcg, etc. In one embodiment, the preferred range is 10 mcg-40 mcg.
The PTH peptide can also be administered in conjunction with other therapeutic agents such as bisphonates, calcium, vitamin D, estrogen or estrogen-receptor binding compounds, selective estrogen receptor modulators (SERMs), bone morphogenic proteins and/or calcitonin. In one embodiment, 500 mg calcium may be administered daily for the duration of treatment with teriparatide. Vitamin D may also be administered along with teriparatide. Unless a patient is hypercalemic, defined as a total serum calcium concentration >10.4 mg/dL (>2.60 mmol/L) or ionized serum calcium >5.2 mg/dL (>1.30 mmol/L), calcium would be used as part of the treatment regimen. For patients with low vitamin D concentrations, defined as a 25(OH)D concentration of 12 to 20 ng/mL (30 to 50 nmol/L), Vitamin D may also be administered during treatment descried herein. […]

Another data set concerns osteosarcoma. Particulars: over 16,000 unique patients, post-market analysis; cited from earlier work.
For another data set, the system named is distal radial fracture. Conditions: cited from earlier work; for time to radiographic healing: placebo 9.1 weeks.
Data set [3] in a line: Plasma teriparatide concentrations after a single subcutaneous injection (FIG. 9). Particulars: sc.
From the text: as §1

For “PTH 1-84: full-length human parathyroid hormone, an 84 amino acids peptide with N-terminal and C-terminal regions”, the bioavailability in data set [1] is recorded as 55%. The duration of action result in data set [1] (compared with PTH 1-34) is listed as “longer”. Also, the “half-life after subcutaneous injection” value in data set [1] (subcutaneous injection) is recorded as “approximately 2.5 hours”.

Consider `CC[C@H](C)[C@H](NC(=O)[C@H](CCC(=O)O)NC(=O)[C@H](CO)NC(=O)[C@@H](NC(=O)[C@@H](N)CO)C(C)C)C(=O)N[C@@H](CCC(N)=O)C(=O)N[C@@H](CC(C)C)C(=O)N[C@@H](CCSC)C(=O)N[C@@H](Cc1cnc[nH]1)C(=O)N[C@@H](CC(N)=O)C(=O)N[C@@H](CC(C)C)C(=O)NCC(=O)N[C@@H](CCCCN)C(=O)N[C@@H](Cc1cnc[nH]1)C(=O)N[C@@H](CC(C)C)C(=O)N[C@@H](CC(N)=O)C(=O)N[C@@H](CO)C(=O)N[C@@H](CCSC)C(=O)N[C@@H](CCC(=O)O)C(=O)N[C@@H](CCCN=C(N)N)C(=O)N[C@H](C(=O)N[C@@H](CCC(=O)O)C(=O)N[C@@H](Cc1c[nH]c2ccccc12)C(=O)N[C@@H](CC(C)C)C(=O)N[C@@H](CCCN=C(N)N)C(=O)N[C@@H](CCCCN)C(=O)N[C@@H](CCCCN)C(=O)N[C@@H](CC(C)C)C(=O)N[C@@H](CCC(N)=O)C(=O)N[C@@H](CC(=O)O)C(=O)N[C@H](C(=O)N[C@@H](Cc1cnc[nH]1)C(=O)N[C@@H](CC(N)=O)C(=O)N[C@@H](Cc1ccccc1)C(=O)O)C(C)C)C(C)C` [teriparatide], for which, in data set [1], the bioavailability is 95%. Moreover, in data set [1] (subcutaneous injection), the Absolute bioavailability is 95%, the half-life result was “approximately 1 hour”, the “half-life after subcutaneous injection” value is on record as “approximately 1 hours” and the “time to peak concentrations” value was 30 min. In data set [2] (28.2 ug), this compound registered an AUCinf of 28.07 ± 2.47 ng/min/mL and an AUClast of 25.84 ± 3.18 ng/min/mL. In addition, in data set [2] (56.5 ug), the AUCinf turned out to be 52.73 ± 10.03 ng/min/mL, the AUClast came to 49.91 ± 11.33 ng/min/mL and the “time after the injection at which Cmax was achieved” value is listed as 1 h. The “mechanical strength of fractures” value with tibial fractures (60 and 200 kg/day once daily) is “increased”. Further, in the data set on tibial fractures (once daily), the callus quantity is “increased”. The “healing of the subjects' stress fractures” value in the data set with stress fractures (DTSFs) was “resulted in healing”. For the same compound, the “reported cases of osteosarcoma in humans” value in the data set with osteosarcoma is on record as “have not been any reported cases”. Moreover, in the data set on distal radial fracture (20 mcg daily for 8 weeks), the “time to healing compared with placebo group” value is reported as “shorter” and the “time to radiographic healing” value is reported as 7.4 weeks. In addition, in the data set with distal radial fracture (40 mcg daily for 8 weeks), the “improvement in healing time compared with placebo” value is recorded as “not a statistically significant improvement” and the “time to radiographic healing” value is 8.8 weeks. For the same compound, in data set [3] (28.2 ug), the highest level (Cmax) was 0.193 ± 0.0353 ng/mL, the Tmax was 0.9 h and the half-life is 1.16 ± 0.217 h. In data set [3] (56.5 ug), the concentration peaked (Cmax) at 0.338 ± 0.134 ng/mL, the Tmax was 0.875 h and the half-life was determined as 1.29 ± 0.587 h.
